Paper PMC7278776, “Multidrug Resistance Modulation Activity of Silybin Derivatives and Their Anti-Inflammatory Potential” (Antioxidants, 2020)

How the values were obtained:
ABCB6 = ABCB6 mRNA expression (real-time PCR); type: cell-based, human; details: A2780/DOX, 10 µM, 48 h, without doxorubicin
Procedure: (§1) The A2780/DOX cell line was seeded into 5 cm Petri dishes with DMEM medium at 1 × 10^5 cell/mL. […] After 48 h of treatment, the cells were washed with PBS and harvested using the standard trypsin-EDTA procedure. The harvested cells were centrifuged (3200× g; 10 min, 4 °C). The supernatant was discarded, and the pellets were washed with 1.5 mL of cooled PBS (5400× g; 10 min, 4 °C). The washing step was repeated with 1 mL of PBS and the cells were centrifuged again (10,000× g; 3 min, 4 °C). Afterwards, the pellets were resuspended in 1 mL of Trizol (Invitrogen, Carlsbad, CA, USA) and transferred into pre-cooled RNase-free microfuge tubes. The samples were stored at −80 °C.
(§2) A Quant-iT RiboGreen RNA Assay Kit (Invitrogen) was used to determine the RNA concentration using the Infinite M200 plate reader (Tecan, Männedor, Switzerland). The cDNA was prepared from 0.5 µg of total RNA using a RevertAid First Strand Synthesis cDNA Kit (MBI Fermentas, Vilnius, Lithuania). The amplification of the ubiquitin C gene fragment was used to determine the quality of cDNA.
(§3) The experiment was performed using the ViiA7 Real-Time polymerase chain reaction (PCR) System (Life Technologies, Camarillo, CA, USA) with a 384-well block. Before quantitative real-time PCR, the master mix was prepared by mixing 2 µL of 8 × diluted cDNA, 1.75 µL of RNase free water, 1 µL of 5 × HotFIREPol Probe quantitative PCR Mix Plus (Solis Biodyne, Tartu, Estonia) and 0.25 µL of specific 20 × TaqMan Gene Expression Assay (Life Technologies), giving 5 µL of final reaction volume. Cycling parameters were: initial hold at 50 °C for 2 min and denaturation at 95 °C for 10 min, followed by 45 cycles consisting of denaturation at 95 °C for 15 s and annealing/extension at 60 °C for 1 min. After each extension phase, the fluorescence values were acquired. Duplicate samples were used for measurement and samples with a standard deviation of duplicates > 1.0 cycle threshold (Ct) were re-analyzed. The real time PCR procedure was maintained according to MIQE (Minimum information for publication of quantitative real-time PCR experiments) guidelines. The software REST 2009 (Qiagen, Hilden, Germany) served to compare relative transcript levels of genes in the cell line.

ABCF1 = ABCF1 mRNA expression (real-time PCR); type: cell-based, human; details: A2780/DOX, 10 µM, 48 h, without doxorubicin
Procedure: (§4) The A2780/DOX cell line was seeded into 5 cm Petri dishes with DMEM medium at 1 × 10^5 cell/mL. After 24 h, the dishes were washed with PBS and new DMEM medium supplemented with doxorubicin (at concentration equal to IC25) and samples (10 µM) were added. After 48 h of treatment, the cells were washed with PBS and harvested using the standard trypsin-EDTA procedure. The harvested cells were centrifuged (3200× g; 10 min, 4 °C). The supernatant was discarded, and the pellets were washed with 1.5 mL of cooled PBS (5400× g; 10 min, 4 °C). The washing step was repeated with 1 mL of PBS and the cells were centrifuged again (10,000× g; 3 min, 4 °C). Afterwards, the pellets were resuspended in 1 mL of Trizol (Invitrogen, Carlsbad, CA, USA) and transferred into pre-cooled RNase-free microfuge tubes. The samples were stored at −80 °C.
as §2, §3

ABCC5 = ABCC5 mRNA expression (real-time PCR); type: cell-based, human; details: A2780/DOX, 10 µM, 48 h, without doxorubicin
ABCG2 (BCRP) = assay: ABCG2 mRNA expression (real-time PCR); type: cell-based, human
Procedure: as §1, §2, §3

ABCA3 = ABCA3 mRNA expression (real-time PCR); type: cell-based, human; details: A2780/DOX
Procedure: as §4, §2, §3

[1] = ORAC (oxygen radical absorption capacity) assay; details: fluorescein/AAPH; read-out: ORAC, concentration necessary to halve the fluorescence response (IC50)
Procedure: Antioxidant capacity of samples was determined by ORAC (oxygen radical absorption capacity) and CAA (cellular antioxidant activity) assays. ORAC assay was realized by the previously described protocol. Briefly, 50 µL of the fluorescein solution (1.6 µg/mL in phosphate-buffered saline (PBS), pH 7.4) was added by a dispenser (MultiFlo Microplate Dispenser, BioTek Instrument, Winooski, VT, USA) into each well of a 96-well plate. Subsequently, 2 µL of tested compound in the concentration range 1.25–20 µM and 23 µL of PBS were added to the wells. The plate was incubated for 15 min at 37 °C and then 25 µL of AAPH (60 mg/mL) was added to each well. AAPH was replaced with PBS for the negative control. Immediately, the fluorescence was recorded by the microplate reader (SpectraMax i3 Multi-Mode Detection Platform, Molecular Devices, San Jose, CA, USA) for 2 h in 5 min steps (excitation/emission 485/535 nm).

A2780/DOX [2] = assay: Sensitization of the MDR cell line to doxorubicin; type: cell-based, human
ABCA5 = ABCA5 mRNA expression (real-time PCR); type: cell-based, human; details: A2780/DOX
Procedure: as §4, §2, §3

A2780/DOX [3] = assay: Viability of A2780/DOX cells (resazurin); details: Homo sapiens, A2780, read-out: IC50 (µM), concentration necessary to halve cell viability
Procedure: To determine the NO production, the medium was mixed with Griess reagent (0.04 g/mL, prepared in deionized water) in a 1:1 ratio. After 15 min, absorbance was recorded at 540 nm. To determine cell viability, the resazurin solution (0.03 mg/mL in PBS) was added to the cells. After 2 h of incubation, fluorescence was recorded (560/590 nm, ex./em.).
A multidrug resistant ovarian sub-line resistant to doxorubicin (A2780/DOX, Sigma-Aldrich) was cultivated in DMEM medium with 10% FBS and 1 × antibiotic antimycotic solution. Every other passage, doxorubicin at the final concentration of 0.1 µM was added to the culture medium to maintain the resistance of the cell line. To perform experiments, the cells were seeded at 1 × 10^5 cell/mL into the wells of a 96-well plate and incubated for 24 h. Afterwards, the cells were washed with PBS and fresh DMEM medium with tested compounds at 10, 20 and 30 µM were added to each well, except for the control wells. Subsequently, the cells were exposed to increasing concentrations of doxorubicin (0.6–20 µM) for 72 h. After incubation, the resazurin assay was performed as described above. The IC50 of doxorubicin was calculated for both the control and the samples and the fold change was counted up. […] The fold change lower than 1 means an antagonistic effect. (1) FOLD CHANGE=IC50 value of DOX cells treated with chemotherapeutic /IC50 value of DOX cells treated with chemotherapeutic and compound

ABCF3 = ABCF3 mRNA expression (real-time PCR); type: cell-based, human; details: A2780/DOX
Procedure: as §1, §2, §3

[4] = 10 µM, 48 h, without doxorubicin
[5] = A2780/DOX, 10 µM, 48 h, without doxorubicin
[6] = 10 µM combined with doxorubicin at IC25, 48 h

Q: For `COc1cc([C@@H]2Oc3cc([C@H]4Oc5cc(O)cc(O)c5C(=O)[C@@H]4O)ccc3O[C@H]2CO)ccc1O` [Silybin B, silybin B], which “ABCB6 Expression Difference” value (ABCB6) is on record?
A: Its value is 0.396.

Q: What about the “ABCB6 Treated vs. Untreated” value (ABCB6) of the same molecule?
A: The value was “DOWN”.

Q: And the “ABCF1 Expression Difference” value (ABCF1)?
A: Its value is 0.260.

Q: And the “ABCF1 Treated vs. Untreated” value (ABCF1)?
A: The value was “DOWN”.

Q: What about the “ABCC5 Expression Difference” value (ABCC5) of the same molecule?
A: The value was 0.365.

Q: What about the “ABCC5 Treated vs. Untreated” value (ABCC5) of the same molecule?
A: Its value is “DOWN”.

Q: What about the “downregulation of ABCG2 (BCRP) expression” value (ABCG2 (BCRP); [4]) of the same molecule?
A: The value was 67%.

Q: And the “ABCG2 Expression Difference” value (ABCG2 (BCRP); A2780/DOX, 10 µM combined with doxorubicin at IC25, 48 h)?
A: Its value is 1.902.

Q: What about the “ABCG2 Expression Difference” value (ABCG2 (BCRP); [5]) of the same molecule?
A: Its value is 0.335.

Q: And the “ABCG2 Treated vs. Untreated” value (ABCG2 (BCRP); [5])?
A: Its value is “DOWN”.

Q: What about the “ABCA3 Expression Difference” value (ABCA3; [6]) of the same molecule?
A: The value was 0.794.

Q: And the “ABCA3 Treated vs. Untreated” value (ABCA3; [6])?
A: The value was “DOWN”.

Q: And the “ABCA3 Expression Difference” value (ABCA3; [4])?
A: Its value is 0.228.

Q: And the “ABCA3 Treated vs. Untreated” value (ABCA3; [4])?
A: The value was “DOWN”.

Q: And the IC50 [1]?
A: The IC50 was 6.8 ± 0.3 µM.

Q: What about the “Doxorubicin-sensitization rate (ratio of IC50 of doxorubicin and doxorubicin + tested compound)” value (A2780/DOX [2]; compound 10 µM) of the same molecule?
A: Its value is “(1.4 ± 0.1) ×”.

Q: And the “Doxorubicin-sensitization rate (ratio of IC50 of doxorubicin and doxorubicin + tested compound)” value (A2780/DOX [2]; compound 20 µM)?
A: Its value is “(1.5 ± 0.2) ×”.

Q: What about the “Doxorubicin-sensitization rate (ratio of IC50 of doxorubicin and doxorubicin + tested compound)” value (A2780/DOX [2]; compound 30 µM) of the same molecule?
A: The value was “(1.8 ± 0.1) ×”.

Q: And the “Doxorubicin-sensitization rate (ratio of IC50 of doxorubicin and doxorubicin + tested compound)” value (A2780/DOX [2]; compound 50 µM)?
A: Its value is “(3.3 ± 0.4) ×”.

Q: What about the “ABCA5 Expression Difference” value (ABCA5; [6]) of the same molecule?
A: Its value is 1.821.

Q: And the “ABCA5 Expression Difference” value (ABCA5; [4])?
A: Its value is 0.356.

Q: What about the “ABCA5 Treated vs. Untreated” value (ABCA5; [4]) of the same molecule?
A: The value was “DOWN”.

Q: And the IC50 (A2780/DOX [3])?
A: Its IC50 is 194 ± 8.8 µM.

Q: What about the “ABCF3 Expression Difference” value (ABCF3; [6]) of the same molecule?
A: Its value is 1.335.

Q: And the “ABCF3 Expression Difference” value (ABCF3; [4])?
A: The value was 0.328.

Q: What about the “ABCF3 Treated vs. Untreated” value (ABCF3; [4]) of the same molecule?
A: Its value is “DOWN”.
